Results published in patent publication US4324728A, “Compound nanaomycin A and derivatives thereof and a process for producing the same” (The Kitasato Institute, priority 1976, dated 1982).
Values after ≈ are worked out from the molar mass of the structure shown.

What was measured:
Saccharomyces sake = assay: Minimal inhibitory concentration (agar); type: cell-based; conditions: Saccharomyces, 96 h; potato agar, pH 6.4, 4 days, 27° C.; read-out: MIC
[1] = test system: Staphylococcus aureus FDA 209P; assay: Minimal inhibitory concentration (agar); type: cell-based; conditions: FDA209P, 48 h, nutrient agar, pH 7.0, 2 days, 37° C.
Salmonella typhimurium = assay: Minimal inhibitory concentration (agar); type: cell-based; conditions: Salmonella enterica, 48 h, nutrient agar, pH 7.0, 2 days, 37° C.
Sclerotinia cinerea = assay: Minimal inhibitory concentration (agar); type: cell-based; conditions: 96 h, potato agar, pH 6.4, 4 days, 27° C.
Protocol: | P potato agar (pH 6.4, 4 days, 27° C.)

mycoplasmas = assay: Antimycoplasma activity (in words); type: cell-based
Sarcina lutea PCI 1001 = assay: Minimal inhibitory concentration (agar); type: cell-based; conditions: Micrococcus luteus, PCI1001, 48 h, pH 7, nutrient agar, pH 7.0, 2 days, 37° C.; read-out: MIC
Protocol: (§1) Medium N nutrient agar (pH 7.0, 2 days, 37° C.)
(§2) MIC Minimal inhibitory concentration
(§3) N nutrient agar (pH 7.0, 2 days, 37° C.)

Pseudomonas aeruginosa = assay: Minimal inhibitory concentration (agar); type: cell-based; conditions: 48 h, nutrient agar, pH 7.0, 2 days, 37° C.
Protocol: as §1, §2, §3

Shigella flexneri = assay: Minimal inhibitory concentration (agar); type: cell-based; conditions: 48 h, nutrient agar, pH 7.0, 2 days, 37° C.
Protocol: as §1, §2, §3

[2] = test system: Staphylococcus aureus FDA 209P (JC-1); assay: Minimal inhibitory concentration (agar); type: cell-based; conditions: FDA209P, 48 h, nutrient agar, pH 7.0, 2 days, 37° C.
Protocol: as §1, §2, §3

[3] = test system: Bacillus subtilis PCI 219; assay: Minimal inhibitory concentration (agar); type: cell-based; conditions: Bacillus subtilis, PCI219, 48 h, pH 7, nutrient agar, pH 7.0, 2 days, 37° C.; read-out: MIC
Protocol: as §1, §2, §3

[4] = test system: Escherichia coli NIHJ (JC-2); assay: Minimal inhibitory concentration (agar); type: cell-based; conditions: 48 h, pH 7, nutrient agar, pH 7.0, 2 days, 37° C.
Protocol: as §1, §2, §3

[5] = test system: parasite of the genus Tricophyton; assay: Therapeutic effect on infectious diseases in guinea pigs and cattle; type: in vivo
Protocol: When dermatomycosis of cattle caused by mass infection of Trichophyton verrucosum is treated with nanaomycin A, nanaomycin A is dissolved or suspended in a suitable carrier, for example, olive oil, and is coated on the affected part directly with or without removal of the scales. […] The results obtained by once-coating of nanaomycin A and by twice-coating (the second coating is carried out a week after the first coating) are shown in Tables 2 and 3, respectively.

[6] = test system: Mycoplasma gallisepticum 333P (Spiramycin resistant); assay: Minimal inhibitory concentration (PPLO agar); type: cell-based; conditions: Mycoplasmoides gallisepticum, 192 h, pH 7.8
Protocol: (§4) H Hokken PPLO agar (pH 7.8, 8 days, 37° C.)
(§5) E Eiken PPLO agar (pH 7.8, 8 days, 37° C.)
as §2

[7] = test system: Mycoplasma gallisepticum S-6; assay: Minimal inhibitory concentration (PPLO agar); type: cell-based; conditions: Mycoplasmoides gallisepticum, S6, 192 h; Eiken PPLO agar, pH 7.8, 8 days, 37° C.; read-out: MIC
Protocol: as §4, §5, §2

[8] = test system: Mycoplasma gallisepticum KP-13; assay: Minimal inhibitory concentration (PPLO agar); type: cell-based; conditions: Mycoplasmoides gallisepticum, KP13, 192 h; Eiken PPLO agar, pH 7.8, 8 days, 37° C.; read-out: MIC
Protocol: as §4, §5, §2

[9] = test system: Klebsiella pneumoniae PCI 602; assay: Minimal inhibitory concentration (agar); type: cell-based; conditions: PCI602, 48 h, nutrient agar, pH 7.0, 2 days, 37° C.
[10] = test system: Mycobacterium smegmatis ATCC 607; assay: Minimal inhibitory concentration (agar); type: cell-based; conditions: Mycolicibacterium smegmatis, ATCC607, 48 h; nutrient agar, pH 7.0, 2 days, 37° C.
Gram-positive bacteria = assay: Antibacterial activity (in words); type: cell-based
[11] = test system: Trichophyton interdigitale; assay: Minimal inhibitory concentration (agar); type: cell-based; conditions: Trichophyton interdigitale, 96 h; potato agar, pH 6.4, 4 days, 27° C.; read-out: MIC
Aspergillus niger = assay: Minimal inhibitory concentration (agar); type: cell-based; conditions: Aspergillus niger, 96 h; potato agar, pH 6.4, 4 days, 27° C.; read-out: MIC
Protocol: (§6) Minimal inhibitory concentration was assayed by agar dilution method
(§7) (potato agar, pH 6.4, 27° C., 4 days).
(§8) P potato agar (pH 6.4, 4 days, 27° C.)

fungi = assay: Antifungal activity (in words); type: cell-based
Mycoplasma pneumoniae = assay: Minimal inhibitory concentration (PPLO agar); type: cell-based; conditions: 192 h, Eiken PPLO agar, pH 7.8, 8 days, 37° C.
[12] = test system: mycoplasma, Gram-positive bacteria and tricophyton; assay: Antimicrobial activity (in words); type: cell-based
Candida albicans = assay: Minimal inhibitory concentration (agar); type: cell-based; conditions: Candida albicans, 96 h, pH 6.4, potato agar, pH 6.4, 4 days, 27° C.; read-out: MIC
Protocol: as §8, §2, §6, §7

Escherichia coli NIHJ = assay: Minimal inhibitory concentration (agar); type: cell-based; conditions: 48 h, nutrient agar, pH 7.0, 2 days, 37° C.
Mycoplasma gallinarum = assay: Minimal inhibitory concentration (PPLO agar); type: cell-based; conditions: Mycoplasmopsis gallinarum, 192 h, Eiken PPLO agar, pH 7.8, 8 days, 37° C.
Protocol: as §4, §2, §5

Mycoplasma iners = assay: Minimal inhibitory concentration (PPLO agar); type: cell-based; conditions: Mycoplasmopsis iners, 192 h; Eiken PPLO agar, pH 7.8, 8 days, 37° C.
Protocol: as §4, §2, §5

Solubility = type: physicochemical

CC1OC(CC(N)=O)CC2=C1C(=O)c1c(O)cccc1C2=O (stereo not drawn) [Nanaomycin C, nanaomycin C]
MIC (Saccharomyces sake): > 100 µg/mL
MIC [1]: 6.3 µg/mL (≈ 20.9 µM)
MIC (Salmonella typhimurium): > 100 µg/mL
MIC (Sclerotinia cinerea): 100 µg/mL (≈ 332 µM)
activity against mycoplasma(s) (mycoplasmas): a weaker activity against fungi and mycoplasmas than nanaomycin A
MIC (Sarcina lutea PCI 1001): 25 µg/mL (≈ 83 µM)
MIC (Pseudomonas aeruginosa): > 100 µg/mL
MIC (Shigella flexneri): > 100 µg/mL
MIC [2]: 3.1 µg/mL (≈ 10.3 µM)
MIC [3]: 6.3 µg/mL (≈ 20.9 µM)
MIC [4]: > 100 µg/mL
therapeutic effect on Trichophyton infectious diseases [5]: poor therapeutic effect
MIC [6]: 3.1 µg/mL (≈ 10.3 µM)
MIC [7]: 6.3 µg/mL (≈ 20.9 µM)
MIC [8]: 12.5 µg/mL (≈ 41.5 µM)
MIC [9]: > 100 µg/mL
MIC [10]: 50 µg/mL (≈ 166 µM)
activity against Gram-positive bacteria (Gram-positive bacteria): as strong activity against Gram-positive bacteria as nanaomycin A
MIC [11]: 100 µg/mL (≈ 332 µM)
MIC (Aspergillus niger): > 100 µg/mL
activity against fungi (fungi): a weaker activity against fungi and mycoplasmas than nanaomycin A
MIC (Mycoplasma pneumoniae): 6.3 µg/mL (≈ 20.9 µM)
antimicrobial activity [12]: inhibits mainly Gram-positive bacteria and mycoplasmas
MIC (Candida albicans): > 100 µg/mL
MIC (Escherichia coli NIHJ): 100 µg/mL (≈ 332 µM)
MIC (Mycoplasma gallinarum): 12.5 µg/mL (≈ 41.5 µM)
MIC (Mycoplasma iners): 50 µg/mL (≈ 166 µM)
Solubility in methanol, ethanol, ethylacetate, chloroform and acetone (Solubility; methanol, ethanol, ethylacetate, chloroform, acetone): Soluble
Solubility in n-hexane and petroleum ether (Solubility; n-hexane, petroleum ether): Insoluble
Solubility in water (Solubility; water): Insoluble
